Laboratory results from ChEMBL document CHEMBL5154661, “Novel 2-phenyl-3-(Pyridin-2-yl) thiazolidin-4-one derivatives as potent inhibitors for proliferation of osteosarcoma cells in vitro and in vivo” (Eur J Med Chem, 2022).
Converted amounts (≈) assume the structure as drawn. Blank lines part the entries; values can stand above or below the molecule they belong to.

Columns and labels:
[1] = test system: HOS-TE85; assay: Antiproliferative activity against human MNNG/HOS cells assessed as cell growth inhibition measured after 72 hrs by CCK-8 assay; assay type: functional, cell-based; settings: HOS-TE85, 72 h
[2] = Kinetic solubility of compound at pH 6.8 by turbidimetry method; assay type: physicochemical; settings: buffer, read-out: Kinetic_solubility
[3] = Microsomal stability in rat liver microsomes assessed as intrinsic clearance at 0.1 uM incubated for 10 mins in presence of NADPH by LC-MS/MS analysis; assay type: ADME, Microsome
[4] = Microsomal stability in human liver microsomes assessed as intrinsic clearance at 0.1 uM incubated for 10 mins in presence of NADPH by LC-MS/MS analysis; assay type: ADME, Microsome
[5] = Microsomal stability in mouse liver microsomes assessed as intrinsic clearance at 0.1 uM incubated for 10 mins in presence of NADPH by LC-MS/MS analysis; assay type: ADME, Microsome
[6] = Kinetic solubility of compound at pH 7.4 by turbidimetry method; assay type: physicochemical; settings: buffer, read-out: Kinetic_solubility
[7] = test system: HOS-TE85; assay: Antiproliferative activity against human MNNG/HOS cells assessed as cell growth inhibition at 1 uM measured after 72 hrs by CCK-8 assay relative to control; assay type: functional
[8] = test system: SJSA-1; assay: Antiproliferative activity against human SJSA-1 assessed as cell growth inhibition at 1 uM measured after 72 hrs by CCK-8 assay relative to control; assay type: functional
[9] = test system: U2OS; assay: Antiproliferative activity against human U2OS cells assessed as cell growth inhibition at 1 uM measured after 72 hrs by CCK-8 assay relative to control; assay type: functional
[10] = test system: 143B; assay: Antiproliferative activity against human 143B cells assessed as cell growth inhibition at 1 uM measured after 72 hrs by CCK-8 assay relative to control; assay type: functional
[11] = test system: HOS; assay: Antiproliferative activity against human HOS cells assessed as cell growth inhibition at 1 uM measured after 72 hrs by CCK-8 assay relative to control; assay type: functional
[12] = test system: MG-63; assay: Antiproliferative activity against human MG-63 cells assessed as cell growth inhibition at 1 uM measured after 72 hrs by CCK-8 assay relative to control; assay type: functional

SMILES: O=C(NCCCCn1cccn1)c1cccc(C2SCC(=O)N2c2cc(Cl)ccn2)c1 (stereo not given)
IC50 [1]: 0.0364 µM

SMILES: CC(C)(C)c1conc1N1C(=O)CSC1c1cccc(C(=O)NCCCCc2ccccc2)c1 (stereo not given)
IC50 [1]: > 1 µM

solubility kinetic [2]: 50 µM (≈ 22 µg/mL) | intrinsic clearance (CLint) [3]: 1198 mL/min/g | intrinsic clearance (CLint) [4]: 116.4 mL/min/g | intrinsic clearance (CLint) [5]: 397 mL/min/g | solubility kinetic [6]: 50 µM (≈ 22 µg/mL)
SMILES: O=C(NCCCCn1cccn1)c1cccc(C2SCC(=O)N2c2cc(F)ccn2)c1 (stereo not given)
IC50 [1]: 0.0332 µM

solubility kinetic [2]: 10 µM (≈ 4.55 µg/mL) | intrinsic clearance (CLint) [3]: 1818 mL/min/g | intrinsic clearance (CLint) [4]: 751 mL/min/g | intrinsic clearance (CLint) [5]: 1903 mL/min/g | solubility kinetic [6]: 10 µM (≈ 4.55 µg/mL)
SMILES: C#Cc1cccc(N2C(=O)CSC2c2cccc(C(=O)NCCCCc3ccccc3)c2)c1 (stereo not given)
IC50 [1]: 0.149 µM

SMILES: O=C(NCCCCc1ccccc1)c1cccc(C2SCC(=O)N2c2ccccc2)c1 (stereo not given)
inhibition at 1 µM [7]: 96% | inhibition at 1 µM [8]: 73% | inhibition at 1 µM [9]: 68% | inhibition at 1 µM [10]: 60% | inhibition at 1 µM [11]: 55% | inhibition at 1 µM [12]: 89% | IC50 [1]: 0.0159 µM

SMILES: Cc1ccnc(N2C(=O)CS[C@H]2c2cccc(C(=O)NCCCCn3cccn3)c2)c1
IC50 [1]: > 10 µM

SMILES: COc1ccc(N2C(=O)CSC2c2cccc(C(=O)NCCCCc3ccccc3)c2)c(OC)c1 (stereo not given)
inhibition at 1 µM [7]: 58% | inhibition at 1 µM [8]: 85% | inhibition at 1 µM [9]: 37% | inhibition at 1 µM [10]: 53% | inhibition at 1 µM [11]: 82% | inhibition at 1 µM [12]: 56% | IC50 [1]: 0.0904 µM

SMILES: CCC1(c2ccc(N3C(=O)CSC3c3cccc(C(=O)NCCCCn4cccn4)c3)cc2)CCC(=O)NC1=O (stereo not given)
IC50 [1]: > 1 µM

solubility kinetic [2]: 10 µM (≈ 4.71 µg/mL) | intrinsic clearance (CLint) [3]: 3543 mL/min/g | intrinsic clearance (CLint) [4]: 2069 mL/min/g | intrinsic clearance (CLint) [5]: 2943 mL/min/g | solubility kinetic [6]: 10 µM (≈ 4.71 µg/mL)
SMILES: O=C(NCCCCc1ccccc1)c1cccc(C2SCC(=O)N2c2cccc(C3CC3)c2)c1 (stereo not given)
IC50 [1]: 0.299 µM

SMILES: O=C(NCCCCc1ccccc1)c1cccc(C2SCC(=O)N2c2ccc(N3CCOCC3)cc2)c1 (stereo not given)
IC50 [1]: > 1 µM

solubility kinetic [2]: 50 µM (≈ 21.1 µg/mL) | intrinsic clearance (CLint) [3]: 506 mL/min/g | intrinsic clearance (CLint) [4]: 82.1 mL/min/g | intrinsic clearance (CLint) [5]: 304 mL/min/g | solubility kinetic [6]: 50 µM (≈ 21.1 µg/mL)
SMILES: O=C(NCCCCn1cccn1)c1cccc(C2SCC(=O)N2c2ccccn2)c1 (stereo not given)
IC50 [1]: 0.0603 µM

solubility kinetic [2]: 2 µM (≈ 0.941 µg/mL) | intrinsic clearance (CLint) [3]: 2275 mL/min/g | intrinsic clearance (CLint) [4]: 811 mL/min/g | intrinsic clearance (CLint) [5]: 2962 mL/min/g | solubility kinetic [6]: 2 µM (≈ 0.941 µg/mL)
SMILES: O=C(NCCCCc1ccccc1)c1cccc(C2SCC(=O)N2c2ccc(C3CC3)cc2)c1 (stereo not given)
IC50 [1]: 0.217 µM

SMILES: COc1ccccc1N1C(=O)CSC1c1cc(C(=O)NCCCCc2ccccc2)cc(C2CC2)c1 (stereo not given)
IC50 [1]: 0.0235 µM

solubility kinetic [2]: 10 µM (≈ 4.85 µg/mL) | intrinsic clearance (CLint) [3]: 2204 mL/min/g | intrinsic clearance (CLint) [4]: 1727 mL/min/g | intrinsic clearance (CLint) [5]: 2490 mL/min/g | solubility kinetic [6]: 10 µM (≈ 4.85 µg/mL)
SMILES: C#Cc1cc(C(=O)NCCCCc2ccccc2)cc(C2SCC(=O)N2c2ccccc2OC)c1 (stereo not given)
IC50 [1]: 0.0408 µM

SMILES: CC1SC(c2cccc(C(=O)NCCCCc3ccc(Cl)cc3)c2)N(c2ccc(C3CC3)cc2)C1=O (stereo not given)
IC50 [1]: > 1 µM

SMILES: O=C(NCCCCn1cccn1)c1cccc(C2SCC(=O)N2c2cc(Br)ccn2)c1 (stereo not given)
IC50 [1]: 0.105 µM

SMILES: COc1ccc(C)cc1N1C(=O)CSC1c1cccc(C(=O)NCCCCc2ccccc2)c1 (stereo not given)
inhibition at 1 µM [7]: 95% | inhibition at 1 µM [8]: 79% | inhibition at 1 µM [9]: 30% | inhibition at 1 µM [10]: 29% | inhibition at 1 µM [11]: 42% | inhibition at 1 µM [12]: 92% | IC50 [1]: 0.3 µM

SMILES: COc1ccccc1N1C(=O)CSC1c1cccc(C(=O)NCCCCc2cccs2)c1 (stereo not given)
IC50 [1]: 0.046 µM

solubility kinetic [2]: 50 µM (≈ 23.4 µg/mL) | intrinsic clearance (CLint) [3]: 1472 mL/min/g | intrinsic clearance (CLint) [4]: 421 mL/min/g | intrinsic clearance (CLint) [5]: 1312 mL/min/g | solubility kinetic [6]: 50 µM (≈ 23.4 µg/mL)
SMILES: COc1ccc(F)cc1N1C(=O)CSC1c1cccc(C(=O)NCCCCn2cccn2)c1 (stereo not given)
IC50 [1]: 0.0973 µM

SMILES: COc1cccc(OC)c1N1C(=O)CSC1c1cccc(C(=O)NCCCCc2ccccc2)c1 (stereo not given)
inhibition at 1 µM [7]: 95% | inhibition at 1 µM [8]: 72% | inhibition at 1 µM [9]: 41% | inhibition at 1 µM [10]: 31% | inhibition at 1 µM [11]: 80% | inhibition at 1 µM [12]: 80% | IC50 [1]: > 1 µM

SMILES: COc1c(F)cccc1N1C(=O)CSC1c1cccc(C(=O)NCCCCc2ccccc2)c1 (stereo not given)
inhibition at 1 µM [7]: 12% | inhibition at 1 µM [8]: 1% | inhibition at 1 µM [9]: 12% | inhibition at 1 µM [10]: 5% | inhibition at 1 µM [11]: 9% | inhibition at 1 µM [12]: 0% | IC50 [1]: 0.0262 µM

SMILES: O=C(NCCCCc1ccccc1)c1cccc(C2SCC(=O)N2c2cnccn2)c1 (stereo not given)
IC50 [1]: > 1 µM

SMILES: COc1ccccc1N1C(=O)CSC1c1cccc(C(=O)NCCCCn2ccc3ccccc32)c1 (stereo not given)
IC50 [1]: 0.286 µM

SMILES: CCN(CC)c1ccc(N2C(=O)CSC2c2cccc(C(=O)NCCCCc3ccccc3)c2)cc1 (stereo not given)
IC50 [1]: > 1 µM

SMILES: COc1ccccc1N1C(=O)CSC1c1cccc(C(=O)NCCCCN2C(=O)C=CC2=O)c1 (stereo not given)
IC50 [1]: > 1 µM
